Assay [1] deals with T1, Histamine H3 receptor (Homo sapiens, UniProt Q9Y5N1). The assay can be described thus: Displacement of [3H]-Nalpha-methylhistamine from human histamine H3 receptor expressed in CHO cells by liquid scintillation counting. Type of assay: cell-based. (In a radioligand displacement assay an active substance lowers the binding of a labelled ligand.)
In assay [2] the target is T1, Histamine H3 receptor. The experiment in a line: Inverse agonist activity at human histamine H3 receptor expressed in CHO cells assessed as inhibition of [35S]-GTPgammaS binding by liquid scintillation counting. It counts as functional, cell-based. (GTPγS is a poorly hydrolysed GTP analogue; its binding reports G protein activation.)

T1 sequence (Q9Y5N1 whole entry): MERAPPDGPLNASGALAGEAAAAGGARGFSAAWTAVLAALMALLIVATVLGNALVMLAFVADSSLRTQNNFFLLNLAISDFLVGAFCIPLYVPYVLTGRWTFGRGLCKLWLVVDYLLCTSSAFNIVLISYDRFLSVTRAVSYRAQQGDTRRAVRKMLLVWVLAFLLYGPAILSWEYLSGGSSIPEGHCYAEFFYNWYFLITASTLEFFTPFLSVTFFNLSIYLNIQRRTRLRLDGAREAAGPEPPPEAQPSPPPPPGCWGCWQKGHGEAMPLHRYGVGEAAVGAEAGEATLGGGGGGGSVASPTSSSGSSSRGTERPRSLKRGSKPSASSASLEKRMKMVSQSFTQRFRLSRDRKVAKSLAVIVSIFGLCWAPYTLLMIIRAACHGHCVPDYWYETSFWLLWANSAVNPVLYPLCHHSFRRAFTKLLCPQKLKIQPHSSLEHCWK

Consider `CC1(C)COC(c2ccc(OCCCN3CCCCC3)cc2)=N1`, for which the affinity in assay [1], expressed as Ki, was 158 nM. In assay [2], the EC50 (as a rule, the concentration at which the effect is half-maximal) was 15.8 nM.
Take `CC1(C)COC(c2ccc(O[C@H]3C[C@H](N4CCCCC4)C3)cc2)=N1`: the affinity in assay [1] corresponds to a Ki of 7.94 nM. The EC50 in assay [2] was 0.631 nM.
For the compound `c1cc(C2=NC3(CCCCC3)CO2)ccc1OCCCN1CCCCC1`, the Ki (as a rule, a measure of affinity in units of concentration, obtained from inhibition or displacement) in assay [1] is 79.4 nM. Besides, the EC50 in assay [2] was 7.94 nM.
In the same order, the values of `c1cc(C2=NC3(CCCCC3)CO2)ccc1O[C@H]1C[C@H](N2CCCCC2)C1` are 2 nM and 2 nM.
With `c1cc(C2=NC3(CCCCC3)CO2)ccc1O[C@H]1C[C@@H](N2CCCCC2)C1`, in assay [1], affinity was put at a Ki of 251 nM. Also, the EC50 in assay [2] was 79.4 nM.
In the same order, the values of `c1cc(-c2nc(CN3CCCCC3)co2)ccc1OCCCN1CCCCC1` are 6.31 nM and 1.58 nM.
The matching figures for `c1cc(-c2nc(CN3CCCCC3)co2)ccc1O[C@H]1C[C@H](N2CCCCC2)C1`: 1.26 nM and 3.16 nM.
In the same order, the values of `COC(=O)c1oc(-c2ccc(O[C@H]3C[C@H](N4CCCCC4)C3)cc2)nc1C` are 2 nM and 1.58 nM.

The values above are taken from ChEMBL document CHEMBL3217520, “Histamine H3 receptor ligands with a 3-cyclobutoxy motif: a novel and versatile constraint of the classical 3-propoxy linker” (Medchemcomm, 2010).
